How the values were obtained:
[1] = tested on: IL-1β release upon NLRP3 activation in human whole blood; experiment: Whole blood (WB) assay (IL-1β release, LPS priming + ATP stimulation, HTRF); assay type: cell-based; details: heparin, diluted 9:5 with media, LPS 1 μg/ml 3 h, compound 30 min, ATP 5 mM 1 h, IL-1β by HTRF
How it was run: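 Heparinised human whole blood, diluted 9:5 in medium, was primed with LPS (1 μg/ml final) for 3 h. Compound was then added for 30 min, followed by ATP (5 mM final) for 1 h. Secreted IL-1β was measured in the media by HTRF (655/620 nm).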

[2] = tested on: IL-1β release upon NLRP3 activation in peripheral blood mononuclear cells (PBMC); experiment: PBMC IC50 determination assay (IL-1β release, LPS priming + ATP stimulation, HTRF); assay type: cell-based; details: PBMC from buffy coats; LPS 1 μg/ml 3 h, compound 30 min, ATP 5 mM 1 h; IL-1β by HTRF
How it was run: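 Buffy-coat PBMC were primed with LPS (1 μg/ml) for 3 h, given compound for 30 min, then stimulated with 5 mM ATP for 1 h. IL-1β released into the medium was quantified by HTRF, reading 655 and 620 nm.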

How did the IC50 [1] turn out when CC(C)c1sc(Cl)cc1NC(=O)NS(=O)(=O)N(c1cnn(C)c1)C1CCN(C)CC1 [Compound 123, 3-[5-Chloro-2-(propan-2-yl)thiophen-3-yl]-1-[(1-methyl-1H-pyrazol-4-yl)(1-methylpiperidin-4-yl)sulfamoyl]urea] was run?
Its IC50 is 1000 to 3000 nM.

What about the IC50 [2] of the same molecule?
The IC50 was < 100 nM.

Cc1nsc(C(C)C)c1NC(=O)NS(=O)(=O)N(c1cnn(C)c1)C1CCCN(C)C1 (stereo not drawn) [Compound 124, 1-[(1-Methyl-1H-pyrazol-4-yl)(1-methylpiperidin-3-yl)sulfamoyl]-3-[3-methyl-5-(propan-2-yl)-1,2-thiazol-4-yl]urea] was tested. Which IC50 [1] did it give?
The IC50 was > 20000 nM.

And the IC50 [2]?
The IC50 was > 10000 nM.

Cc1sc2c(c1NC(=O)NS(=O)(=O)N(c1cnn(C)c1)[C@H]1CCN(C)C1)CCC2 [Compound 125, 1-[(1-Methyl-1H-pyrazol-4-yl)[(3S)-1-methylpyrrolidin-3-yl]sulfamoyl]-3-{2-methyl-4H,5H,6H-cyclopenta[b]thiophen-3-yl}urea] was tested. Which IC50 [1] did it give?
The IC50 was < 1000 nM.

What about the IC50 [2] of the same molecule?
Its IC50 is < 100 nM.

Which results are given for Cc1sc2c(c1NC(=O)NS(=O)(=O)N(c1cnn(C)c1)[C@@H]1CCN(C)C1)CCC2 [Compound 126, 1-[(1-Methyl-1H-pyrazol-4-yl)[(3R)-1-methylpyrrolidin-3-yl]sulfamoyl]-3-{2-methyl-4H,5H,6H-cyclopenta[b]thiophen-3-yl}urea]?
IC50 [1]: < 1000 nM; IC50 [2]: < 100 nM

Cc1cc(NC(=O)NS(=O)(=O)N(c2cnn(C)c2)[C@H]2CCN(C)C2)c(C(C)C)s1 [Compound 127, 1-[(1-Methyl-1H-pyrazol-4-yl)[(3S)-1-methylpyrrolidin-3-yl]sulfamoyl]-3-[5-methyl-2-(propan-2-yl)thiophen-3-yl]urea] was tested. Which IC50 [1] did it give?
Its IC50 is < 1000 nM.

And the IC50 [2]?
Its IC50 is < 100 nM.

With CC(C)c1sc(Cl)cc1NC(=O)NS(=O)(=O)N(c1cnn(C)c1)[C@H]1CCN(C)C1 [Compound 128, 3-[5-Chloro-2-(propan-2-yl)thiophen-3-yl]-1-[(1-methyl-1H-pyrazol-4-yl)-[(3S)-1-methylpyrrolidin-3-yl]sulfamoyl]urea] as the molecule, how does the IC50 [1] read?
Its IC50 is < 1000 nM.

And the IC50 [2]?
Its IC50 is < 100 nM.

CC(C)c1sc(Cl)cc1NC(=O)NS(=O)(=O)N(c1cnn(C)c1)[C@@H]1CCN(C)C1 [Compound 129, 3-[5-Chloro-2-(propan-2-yl)thiophen-3-yl]-1-[(1-methyl-1H-pyrazol-4-yl)-[(3R)-1-methylpyrrolidin-3-yl]sulfamoyl]urea] was tested. Which IC50 [1] did it give?
The IC50 was < 1000 nM.

What about the IC50 [2] of the same molecule?
Its IC50 is < 100 nM.

With Cc1cc(NC(=O)NS(=O)(=O)N(c2cnn(C)c2)[C@@H]2CCN(C)C2)c(C(C)C)s1 [Compound 130, 1-[(1-Methyl-1H-pyrazol-4-yl)[(3R)-1-methylpyrrolidin-3-yl]sulfamoyl]-3-[5-methyl-2-(propan-2-yl)thiophen-3-yl]urea] as the molecule, how does the IC50 [1] read?
The IC50 was < 1000 nM.

And the IC50 [2]?
The IC50 was < 100 nM.

For CC(C)c1sc(C#N)cc1NC(=O)NS(=O)(=O)N(c1cnn(C)c1)C1CCCN(C)C1 (stereo not drawn) [Compound 131, 3-[5-Cyano-2-(propan-2-yl)thiophen-3-yl]-1-[(1-methyl-1H-pyrazol-4-yl)(1-methylpiperidin-3-yl)sulfamoyl]urea], which IC50 [1] is on record?
Its IC50 is 3000 to 10000 nM.

What about the IC50 [2] of the same molecule?
The IC50 was 500 to 1000 nM.
